{"source": "patent US8455435B2", "about": "“Remedies for ischemia” (Ludwig-Maximilians-Universitat Munchen, priority 2006, dated 2013)", "key": {"[1]": {"test_system": "CD45+/CD34+ and CD45+/CD34- cell populations in bone marrow", "assay": "Flow cytometry of bone marrow cells after PTH or G-CSF in healthy mice", "type": "in vivo, C57BL/6 mice", "experimental": "For the experiments healthy age- and sex-matched (male, 8-12 weeks of age) C57BL/6 mice (Charles River) were used. Animal care and all experimental procedures were performed in strict accordance to the German and National Institutes of Health animal legislation guidelines and were approved by the local animal care and use committees.\nMice were divided into the following groups: 1) administration of saline daily for 6 days, sacrificed at day 7 (n=6). 2) administration of PTH (Bachem) daily for 6 consecutive days (80 μg per kg body weight per day, intraperitoneally), sacrificed at day 7 (n=6). 3) administration of PTH daily for 14 consecutive days, sacrificed at day 15 (n=6). 4) administration of G-CSF (Amgen Biologicals) daily for 5 consecutive days (200 μg per kg body weight per day, intraperitoneally), sacrificed at day 6 (n=6).\nat day 6, 1 ml of peripheral blood was harvested from each mouse by aspirating the carotid artery. Bone marrow cells were obtained by flushing the tibias and femurs from the euthanized mice. Mononuclear cells were separated by density-gradient centrifugation using 1.077 g/mL Histopaque solution (Sigma Chemicals), purified and resuspended in phosphate-buffered saline (PBS) containing 1% bovine serum albumin. Cells were incubated for 40 minutes in the dark at 4° C. with following fluorescein-isothiocyanate (FITC), phycoerythrin (PE), and peridinin-chlorphyll-protein (PerCP) conjugated monoclonal antibodies: CD45-PerCP, C34-FITC, CD31-PE, Sca-1-PE and c-kit-PE (all from BD Pharmingen). Isotype-identical antibodies (BD Pharmingen) served as controls. Cells were analyzed by 3-color flow cytometry using a Coulter® Epics® XL-MCL™ flow cytometer (Beckman Coulter). Each analysis included 20000 events. The absolute number of antigen-positive cells per ml of whole blood was calculated by multiplying the percentage of antigen-positive cells with the total number of mononuclear cells per ml of blood detected by the conventional hematological cell analyzer. The number of lymphocytes together with the number of monocytes comprised the total number of mononuclear cells."}, "[2]": {"test_system": "myocardial function", "assay": "Pressure volume relations in vivo (conductance catheter) after MI, PTH treatment", "set-up": "species or system C57BL/6 mice", "experimental": "(§1) Myocardial infarction was induced in male C57BL/6 mice 8-12 weeks of age by surgical occlusion of the left anterior descending artery (LAD) through a left anterolateral approach. Mice were anesthetized by intraperitoneal injection of a mixture of 100 mg/kg ketamine (Sigma Chemical Co., St. Louis, Mo.) and 5 mg/kg Xylazine (Sigma), intubated and artificially ventilated by a mouse ventilator (HUGO SACHS, March, Germany) with 200 strokes/min and 200 μl/stroke. Animal care and all experimental procedures were performed in strict accordance to the German and National Institutes of Health animal legislation guidelines and were approved by the local animal care and use committees.\n(§2) After occlusion of the LAD, mice were divided into the following groups 1) subcutaneous administration of saline daily for 5 days, sacrificed at day 6 (n=10) and day 30 (n=15); 2) administration of rat PTH (1-34) daily for 5 and 14 consecutive days (80 μg/kg/d s.c., Bachem), sacrificed at day 6 (n=9) and day 30 (n=15); 3) sham operated animals sacrificed at day 30 (n=5), and not operated control animals receiving saline (n=6) sacrificed at day 6 and at day 30. All animals received BrdU ([…]) for 5 consecutive days. BrdU and cytokine treatment were started 12-24 hours after LAD occlusion.\nFor evaluation of pressure-volume relationships in vivo, surviving mice of the group 1) MI day 6 (n=6) and day 30 (n=6), 2) MI+PTH day 6 (n=6) and day 30 (n=6), and 3) sham (n=5) and control (n=6) animals were anesthetized with thiopental (100 mg/kg, i.p.), intubated and ventilated (MiniVent, HUGO SACHS, Freiburg, Germany). After catheterization via the right carotid artery an impedance-micromanometer catheter (Millar Instruments, Houston, Tex.) was introduced into the left ventricle. Raw conductance volumes were corrected for parallel conductance by the hypertonic saline dilution method. For absolute volume measurements, the catheter was calibrated with known volumes of heparin treated mouse blood. Pressure-volume signals were recorded at steady state and during transient preload reduction achieved by vena cava occlusion to obtain values independent of cardiac afterload^45. Data analyses were performed as previously described^44 using PVAN analysis software (HUGO SACHS, March, Germany)."}, "[3]": {"test_system": "myocardial infarction", "assay": "Survival after myocardial infarction (LAD occlusion), PTH treatment", "type": "in vivo, C57BL/6 mice", "conditions": "4 weeks after myocardial infarction, PTH 80 μg/kg/d s.c.", "experimental": "as §1\nas §2, with “BrdU and cytokine treatment were started 12-24 hours after LAD occlusion.” left out\nResults were expressed as mean±S.E.M. For statistical analyses the unpaired Student's t-test was used. Mortality was analyzed by the Kaplan-Meier-method. […]"}}, "note": "Where “and” joins values, the source holds several entries; their conditions need not be identical. Equal entries are not always repeated.", "data": [{"substance": "rat PTH (1-34)", "values": [{"measurement": "subtypes of CD45+/CD34- cells in bone marrow", "setting": "[1]; PTH day 6, G-CSF", "result": "significant decrease"}, {"measurement": "subtypes of CD45+CD34+ cells in bone marrow", "setting": "[1]; PTH day 6 or day 14, G-CSF vs control group", "result": "no significant change"}, {"measurement": "maximum LV pressure", "setting": "[2]; PTH treatment of sham operated animals", "result": "80.3±2.1", "unit": "mmHg"}, {"measurement": "arterial elastance (Ea)", "setting": "[2]; day 6 after MI", "result": "6.1±0.5 mmHg/μl and 6.0 mmHg/μl"}, {"measurement": "cardiac output", "setting": "[2]; day 6 after MI", "result": 5537, "unit": "µL/min"}, {"measurement": "contractility", "setting": "[2]; day 6 after MI", "result": "4742±394", "unit": "mmHg/sec"}, {"measurement": "ejection fraction (EF)", "setting": "[2]; day 6 after MI", "result": 30, "unit": "%"}, {"measurement": "stroke work", "setting": "[2]; day 6 after MI", "result": "increased"}, {"measurement": "diastolic function (Tau glantz)", "setting": "[2]; day 6 after MI, vs saline", "result": "without significant changes"}, {"measurement": "arterial elastance (Ea)", "setting": "[2]; day 30 after MI", "result": "7.2±0.5 mmHg/μl and 7.1 mmHg/μl"}, {"measurement": "cardiac output", "setting": "[2]; day 30 after MI", "result": "3810±205"}, {"measurement": "diastolic relaxation (Tau Glantz)", "setting": "[2]; day 30 after MI", "result": "12.0 ± 0.8", "unit": "ms"}, {"measurement": "ejection fraction (EF)", "setting": "[2]; day 30 after MI", "result": "29.0±7.1% and 29%"}, {"measurement": "enddiastolic volume (EDV)", "setting": "[2]; day 30 after MI", "result": "34.4±6.1"}, {"measurement": "stroke work", "setting": "[2]; day 30 after MI", "result": "382±59", "unit": "mmHg×μl"}, {"measurement": "survival rate", "setting": "[3]", "result": 60, "unit": "%"}, {"measurement": "survival rate", "setting": "[3]; listed as rPTH (1-34)", "result": 60.0, "unit": "%"}]}]}
